Columns and labels:
[1] = system: Z. mobilis; experiment: overproduction of proteins in Z. mobilis in response to autoinducer (identified by mass spectrometry); assay type: cell-based, Zymomonas mobilis; conditions: AI-2 produced in vitro with purified enzymes; 2 cytoplasmic and 3 secreted proteins
Description: […] Nature 437, […]) to avoid the toxic effects of bacteriocin production, it stimulated Z. mobilis to overproduce at least 5 proteins, 2 which were retained in the cytoplasm and 3 that were secreted. These proteins were not produced when Z. mobilis was co-cultured with the luxS-deletion strain KX1128, which lacks the LuxS enzyme that is responsible for the synthesis of 4,5-dihydroxy-2,3-pentanedione (DPD) from S-ribosylhomocysteine, which spontaneously cyclizes to form the autoinducer molecule Autoinducer-2 (AI-2).
The proteins overproduced in response to AI-2 were identified by mass spectrometry sequencing of tryptic-fragments. The first of the secreted proteins, ZMO1147, was identified as a homologue of the E. coli periplasmic chaperone Skp/HIpA (Walton, T A and Sousa M C (2004) Crystal structure of Skp, a prefoldin-like chaperone that protects soluble and membrane proteins from aggregation. Mol Cell. 15, 367-74). […] In E.coli the yaeT and hlpA genes are clustered. In Z. mobilis, ZMO1147 is clearly transcriptionally linked to ZMO1148, a homologue of yaeT, being directly downstream of ZMO1148, so that they share the same promoter. Consequently, both ZMO1147 and ZMO1148 must be induced by AI-2. […] Clearly, ZMO1147 must have a role above and beyond acting as a periplasmic chaperone. […]

[2] = system: Z. mobilis cells; experiment: chromate assay for ethanol production by untreated and AI-2-treated Z. mobilis cells; assay type: cell-based, Zymomonas mobilis
Description: The two overproduced cytosolic proteins were identified as enolase, ZMO1608, and pyruvate decarboxylase, ZMO1360 as illustrated in FIG. 2. These are sequential enzymes in the E-D pathway that leads to ethanol production. […] A chromate assay (e.g. 3C2H5OH+4Cr03−>2Cr2O3+3H2O) was used to asses ethanol production, monitoring colour change (e.g. at 600 nm) to determine the ethanol produced.

## Autoinducer-2 [AI-2]
[1]
  protein overproduction in Z. mobilis (in words): over production of the same five proteins
[2]; AI-2-treated Z. mobilis, untreated 9%, FIG. 3
  medium ethanol concentration: 14.2%
[2]; AI-2-treated vs untreated Z. mobilis cells
  ethanol production (in words): significant increase in ethanol production
[2]; AI-2-treated vs untreated Z. mobilis, average of two experiments, chromate assay, colour change at 600 nm
  increase in ethanol production: 54%

Source: patent US8163526B2, “Ethanol production” (The University of Durham, priority 2006, dated 2012)
